# Experimental data taken from patent US20220110949A1, “A 19-NOR C3,3-DISUBSTITUTED C21-N-PYRAZOLYL STEROID AND METHODS OF USE THEREOF” (Sage Therapeutics, Inc., priority 2017, published 2022).
# Marks after values point to notes of the source that are not given here.
# Key:
# healthy adults = assay: Safety and tolerability (adverse events) in the study of Example 1; type: in vivo, human; details: single dose 30 mg or 45 mg
# Text: Frequency, type, severity of adverse events; changes in vital sign assessments, clinical laboratory data, electrocardiogram (ECG) parameters, suicidality assessment via the Columbia Suicide Severity Rating Scale (C-SSRS), sleepiness assessment via Karolinska Sleepiness Scale (KSS), and psychomotor performance assessment via Digit Symbol Substitution Test (DSST)
# The safety and tolerability of Compound 1 Capsules will be evaluated by frequency, type, and severity of adverse events; mean changes from baseline in clinical laboratory measures, vital signs, ECGs, suicidal ideation using the C-SSRS, sleepiness using the KSS, and psychomotor performance using the DSST.
# Adverse events will be classified by type, incidence, severity, and causality. The overall incidence of adverse events will be summarized by Medical Dictionary for Regulatory Activities (MedDRA) system organ class and preferred term. Data for vital signs, clinical laboratory measurements, ECG, and concomitant medication usage will also be summarized. Suicidality data collected using the C-SSRS at baseline and at each visit during the active Treatment Period will be listed for all subjects. The C-SSRS listings will include behavior type and/or category for suicidal ideation and suicidal behavior of the C-SSRS. Out-of-range safety endpoints may be categorized as low or high, where applicable. […]
# [1] = test system: healthy adults, 5-hour phase advance model of insomnia; assay: Double-blind, placebo-controlled 3-way crossover study; polysomnography (PSG) and subjective sleep measures in a 5-hour phase advance model of insomnia; type: in vivo, human; set-up: LPS decrease from baseline: dose or concentration left out as unconfirmed; details: for LPS (min), Median / NAW, Median / SE (%) (sleep efficiency), Median / TST (min), Median / WASO (min), Median / mDURAW (min), Median: PSG; for decrease in median duration of awakenings from baseline: baseline 9.364, awakenings in minutes; for TST median change (increase) from baseline: baseline median 317.00 minutes; for Sleep efficiency (SE) increase from baseline (median): median at baseline 66.042%; for WASO median change from baseline: median at baseline 134.00 minutes; for Subjective Sleep Quality (sSQ) Median (min, max): scale of 1 (poor) to 10 (excellent)
# Text: Example 1. A Randomized, Double-Blind, Multiple Dose, 3-Way Crossover, Exploratory Study to Assess the Pharmacodynamic Effects of Compound 1 Capsules in Healthy Adults Using a 5-Hour Phase Advance Model of Insomnia
# Sleep efficiency, defined as the percentage of time in bed spent asleep, as determined by polysomnography (PSG).
# This is a double-blind, placebo-controlled, 3-way crossover study (Treatment Periods 1, 2, and 3), followed by an open-label administration of Compound 1 for pharmacokinetic purposes (Treatment Period 4). Subjects are expected to participate in Treatment Periods 1, 2 and 3. These subjects may continue into Treatment Period 4. If necessary, de novo subjects may also be included in Treatment Period 4 (see FIG. 2).
# Subjects who meet the sleep diary continuation criteria will return for Visit 2 (Day −7) for a one-night PSG qualification visit. The PSG qualification visit (Visit 2) will begin on Study Day −7 and will continue to Study Day −6. The CRC will determine the median habitual bedtime from their sleep diary. Subjects should arrive at the clinic about 7 hours prior to their habitual bedtime for the one-night PSG qualification visit. Subjects will receive a standard meal and be prepared for overnight PSG recording. Lights out and PSG recording will begin five hours (±30 minutes) earlier than their mean habitual bedtime. Subjects will be required to remain in bed for eight hours, after which time the PSG recording will end, lights will turn on, and subjects will be awakened if asleep. Subjects will complete a Post Sleep Questionnaire about their subjective sleep thirty minutes after the end of the recording. Subjects will be discharged after all morning assessments have been completed at the discretion of the investigator. Subjects will have the option to remain in the clinic (e.g., to sleep at the clinic) until 9 AM.
# Treatment Period 1 (Visit 3) begins on Study Day 1 and continues till Study Day 2. Subjects should arrive at the clinic approximately 7 hours prior to their habitual bedtime. Eligibility criteria will be confirmed and subjects will be randomized (1:1:1:1:1:1) to one of six possible treatment sequences (see FIG. 1). Predose assessments will be conducted. Subjects will receive a standard meal and be prepared for overnight PSG recording. Thirty minutes (±15 minutes) prior to lights out, blinded study drug (30 mg Compound 1, 45 mg Compound 1, or placebo) will be administered with food. Lights out and the PSG recording will begin five hours (±30 minutes) prior to their habitual bedtime. Subjects will be required to remain in bed for eight hours, after which time the lights will turn on, and subjects will be awakened if asleep. The PSG recording will end after 5 minutes (±1 minute) of quiet wakefulness is recorded. Subjects should complete a Post Sleep Questionnaire 30 minutes after the end of the recording. Post-PSG safety assessments will be conducted per the Schedule of Assessments. […] Subjects will have the option to remain in the clinic (e.g., to sleep at the clinic) until 9:00 AM.
# Treatment Period 2 (Visit 4, Study Days 8 to 9) and Treatment Period 3 (Visit 5, Study Days 15 to 16) will follow similar procedures. Subjects will resume normal sleep patterns and maintain a sleep diary during the washout periods between treatments.
# For Treatment Periods 1, 2, and 3, each subject will receive a single dose of study drug (30 mg Compound 1, 45 mg Compound 1, or placebo) on 3 separate visits; each subject will receive each dose level or placebo once. Study subjects who participate in Treatment Period 4 will receive one additional single dose of Compound 1 (30 mg) during one separate study visit.
# The Efficacy Set will include all subjects in the Safety Set who have post-dose PSG data. Sleep efficiency will be analyzed using a mixed effects model for repeated measures (MMRM); the model will include treatment, treatment sequence, and period as fixed effects, with adjustment for screening sleep efficiency. […]
smiles,measurement,setting,value
C[C@@]1(O)CC[C@H]2[C@H](CC[C@@H]3[C@@H]2CC[C@]2(C)[C@@H](C(=O)Cn4cc(C#N)cn4)CC[C@@H]32)C1 [Compound 1],intensity of adverse events,healthy adults,mild
same,serious or severe adverse events,healthy adults,no serious or severe adverse events were observed
same,"Latency to persistent sleep (LPS) (min), Median Difference from Placebo",[1]; 30 mg,-1.50 min
same,"Mean Duration of Awakenings (mDURAW) (min), Median Difference from Placebo",[1]; 30 mg,−3.43** min
same,"Number of Awakenings (NAW), Median Difference from Placebo",[1]; 30 mg,−1.00
same,REM Sleep,[1]; 30 mg,50.15 min
same,"Sleep Efficiency (SE) (%), Median Difference from Placebo",[1]; 30 mg,11.35* %
same,Stage N1,[1]; 30 mg,20.11 min
same,Stage N2,[1]; 30 mg,258.16 min
same,Stage N3 (SWS),[1]; 30 mg,68.38 min
same,"Subjective Sleep Latency (sSL) (min) Median (min, max)",[1]; 30 mg,"15 (2, 240) min"
same,"Subjective TST (sTST) (min) Median (min, max)",[1]; 30 mg,"450.0 (40, 555) min"
same,"Subjective WASO (sWASO) (min) Median (min, max)",[1]; 30 mg,"10.0 (0, 120) min"
same,"Total sleep time (TST) (min), Median Difference from Placebo",[1]; 30 mg,54.50* min
same,"Wakefulness after sleep onset (WASO (min), Median Difference from Placebo)",[1]; 30 mg,−22.00* min
same,effect on REM sleep,[1]; 30 mg and 45 mg,did not disrupt REM sleep
same,"LPS (min), Median",[1]; 30 mg single evening dose,13.25 min
same,"NAW, Median",[1]; 30 mg single evening dose,8.00
same,"SE (%) (sleep efficiency), Median",[1]; 30 mg single evening dose,84.64%
same,"TST (min), Median",[1]; 30 mg single evening dose,406.25 min
same,"WASO (min), Median",[1]; 30 mg single evening dose,55.00 min
same,"mDURAW (min), Median",[1]; 30 mg single evening dose,4.23 min
same,decrease in median duration of awakenings from baseline,[1]; 30 mg,2.629
same,TST median change (increase) from baseline,[1]; 30 mg,85.25 min
same,Sleep efficiency (SE) increase from baseline (median),[1]; 30 mg,17.761%
same,WASO median change from baseline,[1]; 30 mg,-74.75 min
same,LPS decrease from median baseline,"[1]; 30 mg, median baseline 28.50",13.25 min
same,"Subjective Sleep Quality (sSQ) Median (min, max)",[1]; 30 mg,"8.0 (5, 10)"
same,"Latency to persistent sleep (LPS) (min), Median Difference from Placebo",[1]; 45 mg,-1.00 min
same,"Mean Duration of Awakenings (mDURAW) (min), Median Difference from Placebo",[1]; 45 mg,−1.50+ min
same,"Number of Awakenings (NAW), Median Difference from Placebo",[1]; 45 mg,−2.00
same,REM Sleep,[1]; 45 mg,43.54 min
same,"Sleep Efficiency (SE) (%), Median Difference from Placebo",[1]; 45 mg,12.61* %
same,Stage N1,[1]; 45 mg,19.58 min
same,Stage N2,[1]; 45 mg,266.79 min
same,Stage N3 (SWS),[1]; 45 mg,74.71 min
same,"Subjective Sleep Latency (sSL) (min) Median (min, max)",[1]; 45 mg,"10 (1, 60) min"
same,"Subjective TST (sTST) (min) Median (min, max)",[1]; 45 mg,"465.0 (0, 510) min"
same,"Subjective WASO (sWASO) (min) Median (min, max)",[1]; 45 mg,"5.0 (0, 300) min"
same,"Total sleep time (TST) (min), Median Difference from Placebo",[1]; 45 mg,60.50* min
same,"Wakefulness after sleep onset (WASO (min), Median Difference from Placebo)",[1]; 45 mg,−55.50* min
same,"LPS (min), Median",[1]; 45 mg single evening dose,14.25 min
same,"NAW, Median",[1]; 45 mg single evening dose,7.00
same,"SE (%) (sleep efficiency), Median",[1]; 45 mg single evening dose,87.55%
same,"TST (min), Median",[1]; 45 mg single evening dose,420.25 min
same,"WASO (min), Median",[1]; 45 mg single evening dose,42.50 min
same,"mDURAW (min), Median",[1]; 45 mg single evening dose,3.67 min
same,decrease in median duration of awakenings from baseline,[1]; 45 mg,4.261
same,TST median change (increase) from baseline,[1]; 45 mg,96.00 min
same,Sleep efficiency (SE) increase from baseline (median),[1]; 45 mg,20.000%
same,WASO median change from baseline,[1]; 45 mg,-75.25 min
same,"Subjective Sleep Quality (sSQ) Median (min, max)",[1]; 45 mg,"9.0 (6, 10)"
same,LPS decrease from baseline,[1]; median baseline 28.50,14.50 min
same,impact on latency to persistent sleep (LPS),[1]; single dose capsule of 30 mg or 45 mg in the evening,did not impact
